Source: the supplement of paper PMC10307832

How the values were obtained:
Assay in all cases: relative viability (nuclei count vs DMSO), 5 days (fraction); higher = more cells survive
NCI-H2087 = test system: NCI-H2087
In short: (§1)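 Medians of duplicate plates are given as relative viability. That measure is the nuclei count in treated wells divided by the count in vehicle wells. Counts were taken on 4× images of lung cancer cell lines in 1536-well plates, 5 days after pin-tool dosing the day after seeding with one drug alone or a fixed anchor-drug dose plus five library-drug doses (not always all listed) in √10 steps.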

NCI-H2126 = test system: NCI-H2126
In short: as §1

NCI-H2347 = test system: NCI-H2347
In short: as §1

NCI-H23 = test system: NCI-H23
In short: as §1

NCI-H2405 = test system: NCI-H2405
In short: as §1

NCI-H520 = test system: NCI-H520
In short: as §1

NCI-H647 = test system: NCI-H647
In short: as §1

NCI-H650 = test system: NCI-H650
In short: as §1

NCI-H661 = test system: NCI-H661
In short: as §1

PC-14 = test system: PC-14
In short: as §1

RERF-LC-KJ = test system: RERF-LC-KJ
In short: as §1

Q: With `Cc1sc2c(c1C)C(c1ccc(Cl)cc1)=N[C@@H](CC(=O)OC(C)(C)C)c1nnc(C)n1-2` [JQ1] + Nc1nc2[nH]cc(CCc3ccc(C(=O)N[C@@H](CCC(=O)O)C(=O)O)cc3)c2c(=O)[nH]1 [Pemetrexed] (partner 0.2 µM) as the compound, how does the relative viability (NCI-H2087; first compound 0.1265 µM) read?
A: Its relative viability is 0.675.

Q: And the relative viability (NCI-H2087; first compound 0.4 µM)?
A: Its relative viability is 0.692.

Q: What about the relative viability (NCI-H2087; first compound 1.265 µM) of the same compound?
A: Its relative viability is 0.558.

Q: What about the relative viability (NCI-H2087; first compound 4 µM) of the same compound?
A: The relative viability was 0.463.

Q: What about the relative viability (NCI-H2126; first compound 0.04 µM) of the same compound?
A: Its relative viability is 0.71.

Q: What about the relative viability (NCI-H2126; first compound 0.1265 µM) of the same compound?
A: The relative viability was 0.721.

Q: What about the relative viability (NCI-H2126; first compound 0.4 µM) of the same compound?
A: The relative viability was 0.624.

Q: What about the relative viability (NCI-H2126; first compound 1.265 µM) of the same compound?
A: The relative viability was 0.519.

Q: What about the relative viability (NCI-H2126; first compound 4 µM) of the same compound?
A: Its relative viability is 0.413.

Q: And the relative viability (NCI-H2347; first compound 0.04 µM)?
A: Its relative viability is 0.468.

Q: What about the relative viability (NCI-H2347; first compound 0.1265 µM) of the same compound?
A: Its relative viability is 0.423.

Q: What about the relative viability (NCI-H2347; first compound 0.4 µM) of the same compound?
A: Its relative viability is 0.403.

Q: And the relative viability (NCI-H2347; first compound 1.265 µM)?
A: Its relative viability is 0.405.

Q: And the relative viability (NCI-H2347; first compound 4 µM)?
A: The relative viability was 0.357.

Q: What about the relative viability (NCI-H23; first compound 0.04 µM) of the same compound?
A: The relative viability was 0.677.

Q: What about the relative viability (NCI-H23; first compound 0.1265 µM) of the same compound?
A: Its relative viability is 0.67.

Q: And the relative viability (NCI-H23; first compound 0.4 µM)?
A: The relative viability was 0.41.

Q: And the relative viability (NCI-H23; first compound 1.265 µM)?
A: The relative viability was 0.208.

Q: What about the relative viability (NCI-H23; first compound 4 µM) of the same compound?
A: Its relative viability is 0.171.

Q: And the relative viability (NCI-H2405; first compound 0.04 µM)?
A: Its relative viability is 1.08.

Q: And the relative viability (NCI-H2405; first compound 0.4 µM)?
A: The relative viability was 0.899.

Q: And the relative viability (NCI-H2405; first compound 1.265 µM)?
A: Its relative viability is 0.72.

Q: And the relative viability (NCI-H2405; first compound 4 µM)?
A: The relative viability was 0.321.

Q: And the relative viability (NCI-H520; first compound 0.04 µM)?
A: Its relative viability is 0.565.

Q: And the relative viability (NCI-H520; first compound 0.1265 µM)?
A: Its relative viability is 0.536.

Q: And the relative viability (NCI-H520; first compound 0.4 µM)?
A: Its relative viability is 0.491.

Q: And the relative viability (NCI-H520; first compound 1.265 µM)?
A: The relative viability was 0.307.

Q: What about the relative viability (NCI-H520; first compound 4 µM) of the same compound?
A: The relative viability was 0.195.

Q: What about the relative viability (NCI-H647; first compound 0.04 µM) of the same compound?
A: The relative viability was 0.156.

Q: What about the relative viability (NCI-H647; first compound 0.1265 µM) of the same compound?
A: Its relative viability is 0.125.

Q: And the relative viability (NCI-H647; first compound 0.4 µM)?
A: The relative viability was 0.105.

Q: And the relative viability (NCI-H647; first compound 1.265 µM)?
A: The relative viability was 0.0945.

Q: And the relative viability (NCI-H647; first compound 4 µM)?
A: The relative viability was 0.0741.

Q: And the relative viability (NCI-H650; first compound 0.04 µM)?
A: The relative viability was 0.886.

Q: What about the relative viability (NCI-H650; first compound 0.1265 µM) of the same compound?
A: The relative viability was 0.664.

Q: What about the relative viability (NCI-H650; first compound 0.4 µM) of the same compound?
A: The relative viability was 0.839.

Q: What about the relative viability (NCI-H650; first compound 1.265 µM) of the same compound?
A: The relative viability was 0.6.

Q: And the relative viability (NCI-H650; first compound 4 µM)?
A: Its relative viability is 0.276.

Q: What about the relative viability (NCI-H661; first compound 0.04 µM) of the same compound?
A: Its relative viability is 0.914.

Q: What about the relative viability (NCI-H661; first compound 0.1265 µM) of the same compound?
A: The relative viability was 0.876.

Q: What about the relative viability (NCI-H661; first compound 0.4 µM) of the same compound?
A: Its relative viability is 0.916.

Q: And the relative viability (NCI-H661; first compound 1.265 µM)?
A: The relative viability was 0.482.

Q: And the relative viability (NCI-H661; first compound 4 µM)?
A: Its relative viability is 0.423.

Q: What about the relative viability (PC-14; first compound 0.04 µM) of the same compound?
A: The relative viability was 0.12.

Q: What about the relative viability (PC-14; first compound 0.1265 µM) of the same compound?
A: The relative viability was 0.148.

Q: What about the relative viability (PC-14; first compound 0.4 µM) of the same compound?
A: Its relative viability is 0.105.

Q: And the relative viability (PC-14; first compound 1.265 µM)?
A: Its relative viability is 0.136.

Q: What about the relative viability (PC-14; first compound 4 µM) of the same compound?
A: Its relative viability is 0.133.

Q: And the relative viability (RERF-LC-KJ; first compound 0.04 µM)?
A: The relative viability was 0.487.

Q: What about the relative viability (RERF-LC-KJ; first compound 0.1265 µM) of the same compound?
A: Its relative viability is 0.481.

Q: And the relative viability (RERF-LC-KJ; first compound 0.4 µM)?
A: The relative viability was 0.46.

Q: And the relative viability (RERF-LC-KJ; first compound 1.265 µM)?
A: The relative viability was 0.33.

Q: And the relative viability (RERF-LC-KJ; first compound 4 µM)?
A: Its relative viability is 0.275.
